From patent US20110053983A1, “(5R)-1,5-DIARYL-4,5-DIHYDRO-1H-PYRAZOLE-3-CARBOXAMIDINE DERIVATIVES HAVING CB1-ANTAGONISTIC ACTIVITY” (priority 2008, published 2011) come the findings set out here.

“Also recorded” adds a separate entry of the source. Where two headings read alike, the source gives them in different places.

One data set concerns the target T1, cannabinoid-CB1 receptor (Rattus norvegicus, UniProt P20272).
T1 construct: Male normotensive rats (225-300 g; Harlan, Horst, The Netherlands) were anaesthetized; from tissue; host or cells: whole animal: male normotensive rats (Harlan)
Briefly: In vivo CB1 receptor antagonism, CP-55,940-induced hypotension test. The following applies: for ED50: po, CP-55,940 (0.1 mg/kg i.v.) induced hypotension, read-out: CB-agonist induced blood pressure rat ID50; for activity in the in vivo CB1 mediated (CP-55,940-induced) hypotension test, in words: oral administration. As for the experimental part: In vivo cannabinoid-CB1 receptor antagonism was assessed with the CP-55,940-induced hypotension test in rat. Male normotensive rats (225-300 g; Harlan, Horst, The Netherlands) were anaesthetized with pentobarbital (80 mg/kg ip). Blood pressure was measured, via a cannula inserted into the left carotid artery, by means of a Spectramed DTX-plus pressure transducer (Spectramed B. V., Bilthoven, The Netherlands). After amplification by a Nihon Kohden Carrier Amplifier (Type AP-621G; Nihon Kohden B. V., Amsterdam, The Netherlands), the blood pressure signal was registered on a personal computer (Compaq Deskpro 386s), by means of a Po-Ne-Mah data-acquisition program (Po-Ne-Mah Inc., Storrs, USA). Heart rate was derived from the pulsatile pressure signal. All compounds were administered orally as a microsuspension in 1% methylcellulose, 30 minutes before induction of the anesthesia, 60 minutes prior to administration of the CB1 receptor agonist CP-55,940. The injection volume was 10 ml/kg. After haemodynamic stabilization the CB1 receptor agonist CP-55,940 (0.1 mg/kg i. v.) was administered and the hypotensive effect established (Wagner, 2001).

Data set [1] addresses human cannabinoid CB1 receptor (Homo sapiens, UniProt P21554). As to the kind of experiment: In vitro affinity for cannabinoid-CB1 receptors, displacement of [3H]CP-55,940. The class given is binding. As for the experimental part:
In vitro affinity for cannabinoid-CB1 receptors was determined using membrane preparations of Chinese hamster ovary (CHO) cells wherein the human cannabinoid CB1 receptor was stably transfected in conjunction with [^3H]CP-55,940 as radioligand. After incubation of a freshly prepared cell membrane preparation with the [^3H]-ligand, with or without addition of compounds of the invention, separation of bound and free ligand was performed by filtration over glassfiber filters. Radioactivity on the filter was measured by liquid scintillation counting. The binding data were either obtained by CEREP (128, rue Danton, 92500 Rueil-Malmaison, France) or at Solvay Pharmaceuticals B.V. (C. J. van Houtenlaan 36, 1381 C P Weesp, The Netherlands).
On the technique in general: Loss of bound radioactivity is the signal in a displacement assay; it reports binding, not function.

For a further data set, the target named is human CB1 receptors (Homo sapiens, UniProt P21554). Briefly: In vitro CB1 receptor antagonism, inhibition of WIN 55,212-2-induced [3H]-arachidonic acid release in CHO cells. The following applies: for Kb: read-out: functional activity inhibition AA release [3H]-Arachidonic acid pA2 (converted). The class given is cell-based. Here is the method: In vitro cannabinoid-[…] receptor antagonism was assessed with human CB1 receptors cloned in Chinese hamster ovary (CHO) cells. CHO cells were grown in a Dulbecco's Modified Eagle's medium (DMEM) culture medium, supplemented with 10% heat-inactivated fetal calf serum. Medium was aspirated and replaced by DMEM, without fetal calf serum, but containing [^3H]-arachidonic acid and incubated overnight in a cell culture stove (5% CO2/95% air; 37° C.; water-saturated atmosphere). During this period [^3H]-arachidonic acid was incorporated in membrane phospholipids. On the test day, medium was aspirated and cells were washed three times using 0.5 mL DMEM, containing 0.2% bovine serum albumin (BSA). Stimulation of the CB1 receptor by WIN 55,212-2 lead to activation of PLA2 followed by release of [^3H]-arachidonic acid into the medium. This WIN 55,212-2-induced release was concentration-dependently antagonized by CB1 receptor antagonists.
human CB1 receptors, sequence (P21554 whole entry): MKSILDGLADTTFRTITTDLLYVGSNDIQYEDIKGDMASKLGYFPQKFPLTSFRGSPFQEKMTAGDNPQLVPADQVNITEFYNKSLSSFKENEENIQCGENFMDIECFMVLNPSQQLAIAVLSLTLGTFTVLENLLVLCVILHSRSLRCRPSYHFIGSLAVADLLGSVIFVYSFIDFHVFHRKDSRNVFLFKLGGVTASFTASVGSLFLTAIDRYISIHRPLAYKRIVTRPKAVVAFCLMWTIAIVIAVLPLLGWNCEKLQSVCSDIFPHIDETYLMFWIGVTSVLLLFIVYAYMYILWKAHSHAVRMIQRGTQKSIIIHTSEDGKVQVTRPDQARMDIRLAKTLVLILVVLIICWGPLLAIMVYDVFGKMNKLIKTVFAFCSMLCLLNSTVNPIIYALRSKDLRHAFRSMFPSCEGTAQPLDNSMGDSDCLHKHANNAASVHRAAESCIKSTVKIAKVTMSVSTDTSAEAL

The mark [2] stands for this setting: h-CB1 receptor, CHO cell membranes, read-out: receptor binding displacement [3H]-CP-55,940 pKi (converted).
[3] abbreviates: h-CB1 receptor in CHO cells, WIN 55,212-2-induced release.
The mark [4] stands for this setting: (5R) versus (5S)-enantiomer (compound 2).

human cannabinoid CB1 receptor, sequence (P21554 whole entry): as above
T1 sequence (P20272 whole entry): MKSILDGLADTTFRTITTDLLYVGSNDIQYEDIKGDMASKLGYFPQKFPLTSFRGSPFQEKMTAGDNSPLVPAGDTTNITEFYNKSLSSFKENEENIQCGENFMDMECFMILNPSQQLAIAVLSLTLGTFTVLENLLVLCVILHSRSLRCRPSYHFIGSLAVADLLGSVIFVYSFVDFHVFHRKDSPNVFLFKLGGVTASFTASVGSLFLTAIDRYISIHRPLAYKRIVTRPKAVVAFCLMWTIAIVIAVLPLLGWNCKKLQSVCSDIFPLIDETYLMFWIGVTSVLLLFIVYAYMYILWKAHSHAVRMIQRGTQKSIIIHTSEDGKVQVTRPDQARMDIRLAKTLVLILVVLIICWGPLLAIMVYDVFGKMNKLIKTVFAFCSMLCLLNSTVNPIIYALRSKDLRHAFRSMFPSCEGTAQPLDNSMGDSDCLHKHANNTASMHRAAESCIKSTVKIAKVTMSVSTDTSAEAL

As to `CN/C(=N\S(=O)(=O)N1CCCCC1)C1=NN(c2ccc(Cl)cc2)C(c2ccccc2)C1` (racemic) [N-[(piperidin-1-yl)-sulfonyl]-N′-methyl-1-(4-chlorophenyl)-5-phenyl-4,5-dihydro-(1H)-pyrazole-3-carboxamidine, reference compound], the ED50 on cannabinoid-CB1 receptor is greater than 30 mg/kg.

As for `CN=C(NS(=O)(=O)N1CCC(F)(F)CC1)C1=NN(c2ccc(Cl)cc2)C(c2ccccc2F)C1` (racemic) [racemate 2, N-[(4,4-difluoropiperidin-1-yl)sulfonyl]-N′-methyl-1-(4-chlorophenyl)-5-(2-fluorophenyl)-4,5-dihydro-(1H)-pyrazole-3-carboxamidine], the melting point (as a rule, the temperature of the solid-liquid transition) was 166 to 167 °C.

In the case of `CN=C(NS(=O)(=O)N1CCC(F)(F)CC1)C1=NN(c2ccc(Cl)cc2)C(c2ccccc2)C1` (racemic) [racemate (1 + 2), N-[(4,4-difluoropiperidin-1-yl)sulfonyl]-N′-methyl-1-(4-chlorophenyl)-5-phenyl-4,5-dihydro-(1H)-pyrazole-3-carboxamidine], the Ki in data set [1] (setting [2]) was 25.1 nM. Moreover, on cannabinoid-CB1 receptor, the “activity in the in vivo CB1 mediated (CP-55,940-induced) hypotension test, in words” value (“activity in the in vivo CB1 mediated” for short) is recorded as “potent activities” and the ED50 amounted to 9 mg/kg.

With `CN/C(=N\S(=O)(=O)N1CCC(C(F)(F)F)CC1)C1=NN(c2ccc(Cl)cc2)[C@@H](c2ccccc2)C1` [Compound 4, 5R-(+)-N-[(4-(trifluoromethyl)piperidin-1-yl)sulfonyl]-N′-methyl-1-(4-chlorophenyl)-5-phenyl-4,5-dihydro-(1H)-pyrazole-3-carboxamidine], the Ki in data set [1] was 3.16 nM. The “functional activity inhibition AA release [3H]-Arachidonic acid pA2” value on human CB1 receptors (setting [3]) is listed as 9.5.

For `CN/C(=N\S(=O)(=O)N1CCC(F)(F)CC1)C1=NN(c2ccc(Cl)cc2)[C@@H](c2ccccc2)C1` (single isomer, unassigned) [Compound 1], the “affinity for human CB1 receptors relative to the (5S)-enantiomer” value in data set [1] (setting [4]) stood at 25 fold. Also, in data set [1] (setting [2]), the Ki is 10 nM. Besides, on cannabinoid-CB1 receptor, the “activity in the in vivo CB1 mediated” value is “active; also recorded: potent activities” and the ED50 was found to be 6 mg/kg. Moreover, the “antagonist potency (pA2) relative to the (5S)-enantiomer” value on human CB1 receptors (setting [4]) was 40 times. At human CB1 receptors (setting [3]), the Kb was 1.58 nM.

Regarding `CN/C(=N\S(=O)(=O)N1CCC(F)CC1)C1=NN(c2ccc(Cl)cc2)[C@@H](c2ccccc2)C1` [Compound 3, 5R-(+)-N-[(4-fluoropiperidin-1-yl)sulfonyl]-N′-methyl-1-(4-chlorophenyl)-5-phenyl-4,5-dihydro-(1H)-pyrazole-3-carboxamidine], in data set [1] (setting [2]), the Ki is 15.8 nM.

For the compound `CN/C(=N\S(=O)(=O)N1CCC(F)(F)CC1)C1=NN(c2ccc(Cl)cc2)[C@H](c2ccccc2)C1` (single isomer, unassigned) [Compound 2], in data set [1] (setting [2]), the Ki was 251 nM. In addition, at cannabinoid-CB1 receptor, the “activity in the in vivo CB1 mediated” value was “inactive” and the ED50 is greater than 30 mg/kg. For the same compound, the Kb on human CB1 receptors (setting [3]) was 79.4 nM.

As for `CN/C(=N\S(=O)(=O)N1CCCCC1)C1=NN(c2ccc(Cl)cc2)C(c2ccccc2)C1` (stereo not shown) [EP 1 713 475 Compound 10, reference compound], the ED50 at cannabinoid-CB1 receptor was greater than 30 mg/kg.
